Test results: ChEMBL document CHEMBL4742398, “Heterocyclyl substituted pyrrolopyridines that are inhibitors of the cdk12 kinase” (2019)

Biological target: CDK12/Cyclin K (Homo sapiens, UniProt Q9NYV4)
Experiment: Inhibition of CDK12/cyclinK (unknown origin) using RBER-IRStide as substrate and in presence of ATP preincubated for 30 mins followed by addition of substrate measured after 1 hr by ADP-Glo reagent assay
Type: protein-complex assay

Chain of CDK12/Cyclin K (O75909 whole entry): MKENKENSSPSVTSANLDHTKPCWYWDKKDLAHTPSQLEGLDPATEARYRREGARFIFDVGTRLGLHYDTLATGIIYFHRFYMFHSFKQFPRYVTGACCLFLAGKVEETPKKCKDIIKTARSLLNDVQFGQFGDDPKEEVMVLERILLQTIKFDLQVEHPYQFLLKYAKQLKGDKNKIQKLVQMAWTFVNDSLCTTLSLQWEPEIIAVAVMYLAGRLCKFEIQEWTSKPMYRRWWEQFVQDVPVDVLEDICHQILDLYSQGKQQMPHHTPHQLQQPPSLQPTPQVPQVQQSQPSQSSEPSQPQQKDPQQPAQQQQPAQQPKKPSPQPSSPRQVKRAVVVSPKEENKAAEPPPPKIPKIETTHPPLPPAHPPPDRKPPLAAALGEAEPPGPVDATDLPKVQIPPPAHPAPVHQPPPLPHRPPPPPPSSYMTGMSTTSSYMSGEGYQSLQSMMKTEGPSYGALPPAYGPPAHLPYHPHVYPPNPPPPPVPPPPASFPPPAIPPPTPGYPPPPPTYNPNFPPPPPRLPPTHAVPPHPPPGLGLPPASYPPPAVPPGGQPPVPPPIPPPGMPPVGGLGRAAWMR
Chain of CDK12/Cyclin K (Q9NYV4 whole entry): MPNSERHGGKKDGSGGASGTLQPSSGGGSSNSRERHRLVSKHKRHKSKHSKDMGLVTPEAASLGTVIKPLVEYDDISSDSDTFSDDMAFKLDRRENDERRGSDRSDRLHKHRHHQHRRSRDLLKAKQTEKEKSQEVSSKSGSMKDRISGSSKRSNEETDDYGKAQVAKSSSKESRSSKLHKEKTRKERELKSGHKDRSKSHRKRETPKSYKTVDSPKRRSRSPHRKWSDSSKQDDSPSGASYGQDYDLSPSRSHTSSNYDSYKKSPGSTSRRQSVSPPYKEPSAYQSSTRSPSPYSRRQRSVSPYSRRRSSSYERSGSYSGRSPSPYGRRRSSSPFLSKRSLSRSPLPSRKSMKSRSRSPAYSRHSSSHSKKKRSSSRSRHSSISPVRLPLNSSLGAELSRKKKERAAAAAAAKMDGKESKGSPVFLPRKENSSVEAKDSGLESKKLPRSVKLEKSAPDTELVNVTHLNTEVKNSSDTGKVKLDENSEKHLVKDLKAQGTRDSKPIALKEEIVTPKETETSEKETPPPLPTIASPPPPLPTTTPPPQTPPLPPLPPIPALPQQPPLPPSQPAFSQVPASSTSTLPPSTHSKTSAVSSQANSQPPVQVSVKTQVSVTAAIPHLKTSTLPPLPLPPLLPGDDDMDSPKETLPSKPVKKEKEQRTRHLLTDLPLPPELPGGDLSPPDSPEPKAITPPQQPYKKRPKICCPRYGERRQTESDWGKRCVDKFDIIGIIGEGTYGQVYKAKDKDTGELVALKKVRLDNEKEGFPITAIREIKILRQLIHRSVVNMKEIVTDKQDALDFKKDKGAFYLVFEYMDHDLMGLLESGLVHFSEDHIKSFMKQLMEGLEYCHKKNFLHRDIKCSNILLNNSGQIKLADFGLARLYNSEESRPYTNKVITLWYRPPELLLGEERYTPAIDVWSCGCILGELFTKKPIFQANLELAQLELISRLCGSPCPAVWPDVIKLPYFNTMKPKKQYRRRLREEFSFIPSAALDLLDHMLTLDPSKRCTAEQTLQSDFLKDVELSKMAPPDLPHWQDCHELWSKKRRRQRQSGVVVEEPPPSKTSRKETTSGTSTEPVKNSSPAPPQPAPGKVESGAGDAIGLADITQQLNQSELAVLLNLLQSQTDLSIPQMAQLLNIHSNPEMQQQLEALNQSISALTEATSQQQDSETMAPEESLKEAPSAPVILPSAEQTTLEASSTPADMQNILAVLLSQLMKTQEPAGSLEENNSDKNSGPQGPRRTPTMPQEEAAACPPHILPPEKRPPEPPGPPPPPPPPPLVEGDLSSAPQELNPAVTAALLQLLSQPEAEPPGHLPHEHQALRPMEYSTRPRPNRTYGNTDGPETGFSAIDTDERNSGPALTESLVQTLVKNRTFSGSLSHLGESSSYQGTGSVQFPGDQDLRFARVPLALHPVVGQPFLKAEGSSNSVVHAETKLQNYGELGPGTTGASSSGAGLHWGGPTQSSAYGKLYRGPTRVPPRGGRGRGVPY

With `c1cnn2ncc(-c3ccnc4[nH]c(CN5CCNCC5)cc34)c2c1` the IC50 was ≥ 1000 nM.

Tested on: not listed separately
Experiment: Decrease in nuclear foci in human DM1 fibroblast for 24 hrs by fluorescent in situ hybridization assay
Type: functional

`CCC(=O)N1CCC[C@H]1C(=O)NCCc1cc2c(-c3cnn4ncccc34)ccnc2[nH]1` and `C=C(C)C(=O)N1CCC[C@H]1C(=O)NCCc1cc2c(-c3cnn4ncccc34)ccnc2[nH]1` are the same in IC50: 10000 nM for the first, 10000 nM for the second.

`O=C(CCl)Nc1ccc(C(=O)N2CCC(c3cc4c(-c5cnn6ncccc56)ccnc4[nH]3)C2)cc1` (stereo not drawn) and `O=C(CCl)Nc1cccc(C(=O)N2CC[C@H](c3cc4c(-c5cnn6ncccc56)ccnc4[nH]3)C2)c1` cannot be ordered by IC50: < 1000 nM for the first, < 1000 nM for the second.

Going from `C=CC(=O)N1CCC[C@H]1C(=O)NCCc1cc2c(-c3cnn(C)c3)ccnc2[nH]1` to `C=CC(=O)N1CCC[C@@H]1C(=O)NCCc1cc2c(-c3cnn4ncccc34)ccnc2[nH]1`, the IC50 falls from 10000 nM to < 1000 nM. The second is the more potent here.

`c1cc(-c2ccc3cn[nH]c3c2)c2cc[nH]c2n1` and `c1cc(-c2ccc3[nH]nnc3c2)c2cc[nH]c2n1` are the same in IC50: 10000 nM for the first, 10000 nM for the second.

Compared with `CN(C)C/C=C/C(=O)N1CC[C@@H](OCC(=O)N2CCC(c3cc4c(-c5cnn6ncccc56)ccnc4[nH]3)C2)C1` (stereo partly drawn), `CN(C)C/C=C/C(=O)N1CCC(CC(=O)N2CCC(c3cc4c(-c5cnn6ncccc56)ccnc4[nH]3)C2)CC1` (stereo not drawn) is 10-fold higher in IC50: 1000 nM for the first, 10000 nM for the second. The first is the more potent here.

`C=CC(=O)N1CC(C(=O)NCCc2cc3c(-c4cnn5ncccc45)ccnc3[nH]2)C1` and `C=CC(=O)N1CCC[C@@H](C(=O)NCCc2cc3c(-c4cnn5ncccc45)ccnc3[nH]2)C1` are the same in IC50: 1000 nM for the first, 1000 nM for the second.

`C=CC(=O)Nc1ccc(C(=O)N2CCN(Cc3cc4c(-c5cnn6ncccc56)ccnc4[nH]3)CC2)cc1` and `C=CC(=O)Nc1cccc(C(=O)N2CCN(Cc3cc4c(-c5cnn6ncccc56)ccnc4[nH]3)CC2)c1` are the same in IC50: 1000 nM for the first, 1000 nM for the second.

Going from `C=CC(=O)N1CCC[C@@H]1C(=O)NCCc1cc2c(-c3cnn4ncccc34)c(Cl)cnc2[nH]1` to `C=CC(=O)N1CCC[C@H](C(=O)NCCc2cc3c(-c4cnn5ncccc45)c(Cl)cnc3[nH]2)C1`, the IC50 rises from < 1000 nM to 1000 nM. The first is the more potent here.

`C=CC(=O)Nc1ccc(C(=O)N2CCC(c3cc4c(-c5cnn6ncccc56)ccnc4[nH]3)C2)cc1` (stereo not drawn) and `C=CC(=O)Nc1cccc(C(=O)N2CCC(c3cc4c(-c5cnn6ncccc56)ccnc4[nH]3)C2)c1` (stereo not drawn) cannot be ordered by IC50: < 1000 nM for the first, < 1000 nM for the second.

Going from `C=CC(=O)Nc1ccc(C(=O)NCc2cc3c(-c4cnn5ncccc45)ccnc3[nH]2)cc1` to `C=CC(=O)Nc1ccc(C(=O)NCCc2cc3c(-c4cnn5ncccc45)ccnc3[nH]2)cc1`, the IC50 falls from 1000 nM to < 1000 nM.

First: C[C@@H](Cl)C(=O)N1CCC[C@@H]1C(=O)N1CCC(c2cc3c(-c4cnn5ncccc45)ccnc3[nH]2)C1 (stereo partly drawn)
Second: O=C([C@H]1CCCN1C(=O)CCl)N1CCC(c2cc3c(-c4cnn5ncccc45)ccnc3[nH]2)C1 (stereo partly drawn)
The IC50 of the first is higher: 1000 nM for the first, < 1000 nM for the second.

First: CN(C)C/C=C/C(=O)N1CCC[C@@H](C(=O)N2CCC(c3cc4c(-c5cnn6ncccc56)ccnc4[nH]3)C2)C1 (stereo partly drawn)
Second: C=CC(=O)N1CCC[C@H]1C(=O)N1CC[C@@H](c2cc3c(-c4cnn5ncccc45)ccnc3[nH]2)C1
The IC50 of the first is higher: 1000 nM for the first, < 1000 nM for the second.

Compared with `N#CN1CCC[C@H](C(=O)NCCc2cc3c(-c4cnn5ncccc45)ccnc3[nH]2)C1`, `C=CC(=O)N1CCC[C@H](C(=O)NCCc2cc3c(-c4cnn5ncccc45)ccnc3[nH]2)C1` is lower in IC50: 1000 nM for the first, < 1000 nM for the second.

First: Cc1cc2c(-c3cnn4ncccc34)ccnc2[nH]1
Second: OCc1cc2c(-c3cnn4ncccc34)ccnc2[nH]1
The IC50 of the first is lower: < 1000 nM for the first, 1000 nM for the second. The first is the more potent here.

Going from `CC(C)(CCl)C(=O)N1CCC[C@H]1C(=O)NCCc1cc2c(-c3cnn4ncccc34)ccnc2[nH]1` to `C=CC(=O)N1CCC[C@H]1C(=O)NCCc1cc2c(-c3cnn4ncccc34)ccnc2[nH]1`, the IC50 falls from 10000 nM to < 1000 nM. The second is the more potent here.

First: COc1ccc2c(-c3ccnc4[nH]ccc34)cnn2n1
Second: c1cnn2ncc(-c3ccnc4[nH]ccc34)c2c1
The IC50 of the first is higher: 10000 nM for the first, < 1000 nM for the second.

`C=CC(=O)N1C[C@H](F)C[C@H]1C(=O)NCCc1cc2c(-c3cnn4ncccc34)ccnc2[nH]1` and `C=CC(=O)N1CCC1C(=O)NCCc1cc2c(-c3cnn4ncccc34)ccnc2[nH]1` (single isomer, unassigned) cannot be ordered by IC50: < 1000 nM for the first, < 1000 nM for the second.

Compared with `C=CC(=O)N1CCC[C@H]1C(=O)OCCc1cc2c(-c3cnn4ncccc34)ccnc2[nH]1`, `C=CC(=O)N1CCCC[C@H]1C(=O)NCCc1cc2c(-c3cnn4ncccc34)ccnc2[nH]1` is higher in IC50: < 1000 nM for the first, 1000 nM for the second. The first is the more potent here.

First: C=CC(=O)N1CC2(CC2)C[C@H]1C(=O)NCCc1cc2c(-c3cnn4ncccc34)ccnc2[nH]1
Second: C=CC(=O)N1CCOC[C@@H]1C(=O)NCCc1cc2c(-c3cnn4ncccc34)ccnc2[nH]1
The IC50 of the first is higher: 1000 nM for the first, < 1000 nM for the second.

`C=CC(=O)Nc1cccc(C(=O)N2CC[C@H](c3cc4c(-c5cnn6ncccc56)ccnc4[nH]3)C2)c1` and `O=C(CCl)Nc1cccc(C(=O)N2CCC(c3cc4c(-c5cnn6ncccc56)ccnc4[nH]3)C2)c1` (stereo not drawn) cannot be ordered by IC50: < 1000 nM for the first, < 1000 nM for the second.

Going from `CN(C)C/C=C/C(=O)N1CCC[C@H]1C(=O)NCCc1cc2c(-c3cnn4ncccc34)ccnc2[nH]1` to `C/C=C/C(=O)N1CCC[C@H]1C(=O)NCCc1cc2c(-c3cnn4ncccc34)ccnc2[nH]1`, the IC50 falls from 10000 nM to 1000 nM (10-fold). The second is the more potent here.

`O=C(CCl)Nc1cccc(C(=O)N2CC[C@@H](c3cc4c(-c5cnn6ncccc56)ccnc4[nH]3)C2)c1` and `C#CC(=O)Nc1cccc(C(=O)N2CCC(c3cc4c(-c5cnn6ncccc56)ccnc4[nH]3)C2)c1` (stereo not drawn) cannot be ordered by IC50: < 1000 nM for the first, < 1000 nM for the second.

`C=CC(=O)NC(Cc1ccccc1)C(=O)NCCc1cc2c(-c3cnn4ncccc34)ccnc2[nH]1` (stereo not drawn) and `C=CC(=O)NC(C)C(=O)NCCc1cc2c(-c3cnn4ncccc34)ccnc2[nH]1` (stereo not drawn) are the same in IC50: 1000 nM for the first, 1000 nM for the second.

Compared with `C=CC(=O)Nc1cccc(C(=O)NCCc2cc3c(-c4cnn5ncccc45)ccnc3[nH]2)c1`, `CN(C)C/C=C/C(=O)Nc1cccc(C(=O)NCCc2cc3c(-c4cnn5ncccc45)ccnc3[nH]2)c1` is higher in IC50: < 1000 nM for the first, 10000 nM for the second. The first is the more potent here.

Going from `C=CC(=O)Nc1ccc(C(=O)N2CCC(c3cc4c(-c5c[nH]c6ccccc56)ccnc4[nH]3)C2)cc1` (stereo not drawn) to `CN(C)C/C=C/C(=O)Nc1ccc(C(=O)N2CCC(c3cc4c(-c5cnn6ncccc56)ccnc4[nH]3)C2)cc1` (stereo not drawn), the IC50 falls from 1000 nM to < 1000 nM. The second is the more potent here.

`NC(=O)c1cc2c(-c3cnn4ncccc34)ccnc2[nH]1` and `CNC(=O)c1cc2c(-c3cnn4ncccc34)ccnc2[nH]1` are the same in IC50: 1000 nM for the first, 1000 nM for the second.

`CC#CC(=O)N1CCC[C@H]1C(=O)NCCc1cc2c(-c3cnn4ncccc34)ccnc2[nH]1` and `CC(C)=CC(=O)N1CCC[C@H]1C(=O)NCCc1cc2c(-c3cnn4ncccc34)ccnc2[nH]1` are the same in IC50: 1000 nM for the first, 1000 nM for the second.

First: C=CC(=O)N1CCC[C@H]1C(=O)N1CCN(Cc2cc3c(-c4cnn5ncccc45)ccnc3[nH]2)CC1
Second: C=CC(=O)Nc1cc(C(=O)N2CCC(c3cc4c(-c5cnn6ncccc56)ccnc4[nH]3)C2)ccc1OC (stereo not drawn)
The IC50 of the first is higher: 10000 nM for the first, < 1000 nM for the second. The second is the more potent here.

Molecule `c1ccc(Cc2cc3c(-c4cnn5ncccc45)ccnc3[nH]2)cc1` has an IC50 of 10000 nM.
